{
  "source": "patent US9321796B2",
  "about": "“Galactopyranosyl derivatives useful as medicaments” (Universiteit Gent, priority 2012, dated 2016)",
  "key": {"[1]": {"tested_on": "collagen-induced arthritis (CIA) and experimental auto-immune encephalomyelitis (EAE)", "conditions": "CIA and EAE in mice; cited from earlier work"}, "B16 melanoma cells": {"tested_on": "B16 melanoma cells", "test": "B16 melanoma lung metastasis model with glycolipid-loaded BMDC", "type": "in vivo, mice", "conditions": "10,000 glycolipid pulsed BMDC", "description": "(§1) The murine iNKT hybridoma N38-2C12 (Vα14Vβ8.1/8.2b) was provided by Brown University, Providence, Rhode Island, USA). Cells were cultured in DMEM Sigma) supplemented with 10% fetal calf serum (Invitrogen), 1% glutamine (Sigma), 1% penicillin streptomycin (Sigma), and 2-mercapto-ethanol (Sigma) (hereinafter called cDMEM). B16 melanoma cells were cultured in advanced RPMI (Sigma) supplemented with 10% fetal calf serum (Invitrogen), 1% glutamine (Sigma) and 1% penicillin streptomycin (Sigma). They were harvested using cell dissociation buffer, which was washed away twice first using the medium and second with PBS. 400,000 cells were intravenously (IV) injected within 30 minutes after harvest into the tail vein.\nIn order to determine if the new glycolipids can also mimic the anti-metastatic activity of NU-α-GalCer, we examined them in the B16 lung melanoma model. […] As little as 10,000 pulsed BMDC were enough to exert this marked tumor response. To analyze if these anti-tumor results still correspond to strong cytokine responses mice were bled 16 hours after injection of 10,000 pulsed bone marrow dendritic cells. […] Strikingly, the IL-12 results were not different between the 2 doses in contrast to the IFN-γ production, which was more dose-dependent (FIG. 9). […]"}, "[2]": {"target": "T1, TCR / mCD1d-glycolipid complex (Mus musculus, UniProt P11609)", "T1 sequence (P11609 19-297)": "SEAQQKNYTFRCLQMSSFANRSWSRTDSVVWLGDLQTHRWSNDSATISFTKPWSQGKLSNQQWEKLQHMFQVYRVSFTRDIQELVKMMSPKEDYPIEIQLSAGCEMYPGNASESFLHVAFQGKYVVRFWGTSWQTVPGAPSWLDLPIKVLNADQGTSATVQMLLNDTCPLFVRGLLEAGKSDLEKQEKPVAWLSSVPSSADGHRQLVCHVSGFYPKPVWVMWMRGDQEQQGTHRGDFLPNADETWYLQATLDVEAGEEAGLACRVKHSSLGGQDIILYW", "T1 sequence (P01887 21-119 partner)": "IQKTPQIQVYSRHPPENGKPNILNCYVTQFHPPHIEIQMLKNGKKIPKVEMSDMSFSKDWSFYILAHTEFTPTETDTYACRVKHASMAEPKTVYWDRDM", "test": "Surface plasmon resonance: TCR binding to mCD1d-glycolipid complexes", "conditions": "SPR, 25° C., Langmuir 1:1 model; read-out: KD", "description": "SPR studies were conducted using a Biacore 3000 (Biacore). Glycolipids were dissolved at 1 mg/ml in DMSO and before loading were diluted to 0.25 mg/ml with vehicle solution (50 mM Tris-HCl pH 7.0, 4.8 mg/ml sucrose, 0.5 mg/ml deoxycholate and 0.022% Tween-20), heated for 20 minutes at 80° C. After cooling 1 μg of each lipid was incubated with 10 μg enzymatically biotinylated mCD1d overnight at room temperature. In one embodiment, 400-600 response units (RU) of mCD1d-glycolipid complexes were immobilized onto a CA capture chip (Biacore). A reference surface was generated in another flow channel with unloaded mCD1d immobilized at RU of 500. During the association phase, a series of increasing concentrations of TCR (in 10 mM HEPES, 150 mM NaCl, 3.0 mM EDTA, pH 7.4) in duplicate were injected for 80 seconds and the dissociation phase (running buffer only) was monitored over 45 minutes. Experiments were carried out at 25° C. with a flow rate of 30 μl/min and performed at least two to three times, each time with a different batch of TCR preparation. Kinetic parameters were calculated after subtracting the response to mCD1d molecules in the reference channel, using a simple Langmuir 1:1 model in the BIA evaluation software version 4.1. One representative sensorgram for each lipid is shown. […]"}, "iNKT cells [3]": {"tested_on": "iNKT cells", "test": "In vivo activation of iNKT cells: serum cytokines after intraperitoneal glycolipid injection", "parameters": "species or system C57BL/6 mice", "conditions": "16 hours after intraperitoneal injection of 5 μg glycolipid", "description": "Glycolipids from this invention were synthesized according to the procedure of example 1. α-C-GalCer was kindly provided by Aaron Diamond AIDS Research Center (New York, USA) and the NIH Tetramer Core Facility. Lyophilized glycolipids were dissolved in pure dimethylsulfoxide (DMSO) (Sigma) at a 10 mg/mL concentration and stored at −20° C. Glycolipids were solubilized by adding phosphate buffer saline (PBS) (Invitrogen) or a standard vehicle (96 mg/mL sucrose, 10 mg/mL sodium deoxycholate, 0,05% Tween 20), warming to 80° C. for 20 minutes, and then sonication for 10 minutes.\n(§2) For in vivo activation of iNKT cells C57BL/6 mice were either intraperitoneally injected with 5 μg glycolipid (dissolved in PBS) or intravenously with 6·10^5 or 1·10^4 glycolipid pulsed BMDCs.\nIn order to assess the antigenicity of the carbamate-containing galactopyranosyl compounds of example 1 and their ability to induce Th1-skewing, mice were bled at 16 hours after intraperitoneal glycolipid exposure because this is known to afford peak levels of IFN-y, the hallmark Th1 cytokine. […] IFN-y production in response to glycolipid dependent iNKT cell activation is known to be dependent on IL-12^10-12, which was therefore analyzed."}, "[4]": {"tested_on": "spleen DCs (CD11c CD11b double positive)", "test": "Co-stimulatory molecule expression on spleen dendritic cells after glycolipid-pulsed BMDC", "type": "in vivo, C57/BL6 mice", "conditions": "600000 glycolipid-pulsed BMDC", "source_text": "Spleen cells were isolated. Lymphocytes were isolated at the interface and washed, depleted with an anti-CD3 kit (Miltenyi Biotec, Sunnyvale, […]) and re-suspended in a staining buffer containing saturating amount of anti-Fcy Receptor type II/type III monoclonal antibodies (Miltenyi). Hereafter cells were stained with fluorochrome-conjugated mAbs (all from Bioscience) directed against the described antigens. Live cells (exclusion with DAPI) were acquired on a FACSCanto (BD) flow cytometer and analyzed using FlowJo (Tree Star) software.\nExpression of co-stimulatory markers at the cell surface is linked to cytokine polarization because this determines the degree of activation of by-stander cells such as NK cells, whose IFN-y production is responsible for Th1 polarized cytokine profile. For α-C-GalCer, it has been shown that expression of CD40 is essential for IL-12 and subsequent NK cell dependent IFN-γ production. In contrast, OCH, a Th2 polarizing antigen, is not able to induce CD40 expression at the surface of DCs. Additionally OX40L up-regulation by dendritic cells (DC) has been found important for α-GalCer dependent tumour killing.\nGlycolipid stimulation of iNKT cells leads to CD28 expression, and induces CD80 and CD86 expression at the dendritic cell surface, which is required for induction of IL-12 by dendritic cells. […]"}, "iNKT cells [5]": {"tested_on": "iNKT cells", "test": "In vivo cytokine secretion after intravenous injection of glycolipid-pulsed BMDC", "parameters": "species or system C57BL/6 mice", "description": "as §2\n(§3) Next we examined if the glycolipid pulsed BMDC behave similarly in vivo. For cytokine analysis we bled the mice at several time points after injection. We focused on IFN-γ and IL-12 secretion.\nIn order to determine if the new glycolipids can also mimic the anti-metastatic activity of NU-α-GalCer, we examined them in the B16 lung melanoma model. […] As little as 10,000 pulsed BMDC were enough to exert this marked tumor response. To analyze if these anti-tumor results still correspond to strong cytokine responses mice were bled 16 hours after injection of 10,000 pulsed bone marrow dendritic cells. […] Strikingly, the IL-12 results were not different between the 2 doses in contrast to the IFN-γ production, which was more dose-dependent (FIG. 9). This might indicate that other cytokines such as IL-18, which is also necessary for the induction of IFN-γ by NK cells might play an additional role in iNKT cell dependent Th1 polarization."}, "human iNKT cells": {"tested_on": "human iNKT cells", "test": "Cytokine secretion in cultures of purified human iNKT cells", "type": "cell-based", "conditions": "glycolipid 100 ng/ml pulsed PBMCs, 24 hours", "description": "Human iNKT cells from healthy adult individuals were sorted and expanded. PBMCs were isolated by means of density centrifugation, incubated overnight in the presence of indicated glycolipids (100 ng/ml), washed and irradiated (40 Gy). Subsequently, 5×10^4 iNKT cells were stimulated with 10^5 glycolipid pulsed autologous PBMCs in RPMI 1640 media supplemented with 10% human AB serum (Lonza), 1% sodium pyruvate, 1% nonessential amino acids and 1% penicillin/streptomycin (all from Invitrogen). Supernatants were collected after 24 hours of culture and cytokine levels were determined by means of cytometric Bead Arrays (CBA) following the manufacturer's instructions (BD).\nas §3"}, "[6]": {"tested_on": "murine iNKT hybridoma N38-2C12", "test": "Co-culture of glycolipid-pulsed BMDC with iNKT cell hybridoma 2C12, IL-2 by ELISA", "type": "cell-based", "conditions": "BMDC loaded 20 hours with 100 ng/mL glycolipid, 16 hours co-culture with 2C12 cells", "description": "as §1\nFor in vitro stimulation, murine iNKT hybridoma cells at 5·10^4 cells/well in 96-well plates were stimulated with the 10^5 cells/well glycolipid pulsed BMDCs in cDMEM for 4, 16 or 24 hours at […], and levels of murine IL-2 secretion were determined by ELISA.\niNKT cell polarization is a matter of debate and it has been shown uptake by different cells can also affect the outcome. To avoid these host dependent parameters we set up a simple in vitro model, which consists of co-cultures of glycolipid-pulsed bone marrow dendritic cells and an iNKT cell hybridoma (i.c. 2C12 containing a Vβ8.2 TCR). IL-2 production is used as a read-out for TCR affinity for the whole CD1d-glycolipid complex. […] To confirm this we also measured intracellular IL-2 production in 2C12 cells already 4 hours after coculture, where a similar result was obtained (FIG. 2). Because IL-2 production is a downstream event of TCR signaling we analyzed TCRβ expression.\nIn order to assess the antigenic activity of the triazolyl-containing galactopyranosyl compounds of example 10, bone marrow dendritic cells (BMDC) were loaded during 20 hours with 100 ng/mL glycolipid. After 16 hours of co-culture with 2C12 cells (iNKT cell hybridoma), IL-2 secretion was determined by ELISA."}, "[7]": {"conditions": "16 hours after injection of 10,000 pulsed BMDC"}},
  "data": [
    {"molecule": "CCCCCCCCCCCCCCCCCCCCCCCC(=O)N[C@@H](COC1OC(CO)C(O)C(O)C1O)[C@H](O)[C@H](O)CCCCC", "note": "(some centres unmarked) [OCH]", "values": [
      {"measurement": "effect on Th1-mediated auto-immune diseases", "setting": "[1]", "result": "protective effect"}
    ]},
    {"molecule": "CCCCCCCCCCCCCCCCCCCCCCCCCC(=O)NC(COC1OC(COC(=O)Nc2ccncc2)C(O)C(O)C1O)C(O)C(O)CCCCCCCCCCCCCC", "note": "[PyrC-α-GalCer, (2S,3S,4R)-1-O-(6-O-(4pyridinylcarbamoyl)-α-D-galactopyranosyl)-2-hexa-cosylamino-octadecane-1,3,4-triol]", "values": [
      {"measurement": "prevention of tumor metastasis (lung nodules)", "setting": "B16 melanoma cells", "result": "still better in preventing tumor metastasis"},
      {"measurement": "Kd", "setting": "[2]", "result": 33, "unit": "nM"},
      {"measurement": "IL-12 production", "setting": "iNKT cells [3]", "result": "significantly higher IL-12 levels than NU-α-GalCer"},
      {"measurement": "CD40 up-regulation on spleen DCs", "setting": "[4]", "result": "induces early CD40 up-regulation"},
      {"measurement": "IFN-γ production", "setting": "iNKT cells [5]; [7]", "result": "significantly higher"},
      {"measurement": "IL-12 production", "setting": "iNKT cells [5]; [7]", "result": "significantly higher"},
      {"measurement": "IL-12 secretion after 24 hours", "setting": "iNKT cells [5]; 24 hours after injection of glycolipid pulsed BMDC", "result": "markedly higher than for NU-α-GalCer"},
      {"measurement": "IL-12 secretion", "setting": "iNKT cells [5]; after injection of glycolipid pulsed BMDC", "result": "very high"},
      {"measurement": "IFN-γ level time course", "setting": "iNKT cells [5]; several time points after injection of glycolipid pulsed BMDC", "result": "increased up to 24 hours after injection"},
      {"measurement": "Th1-biased cytokine secretion (more IFN-γ and IL-12 and less IL-4 and IL-13 compared to α-GalCer)", "setting": "human iNKT cells", "result": "able to induce Th1-biased cytokine secretion"}
    ]},
    {"molecule": "(2S,3S,4R)-1-O-(6-deoxy-6-(4-butyltriazol-1-yl)-α-D-galactopyranosyl)-2-hexacosylamino-octadecane-1,3,4-triol [Compound 44]", "values": [
      {"measurement": "IL-2 secretion", "setting": "[6]", "result": "tend to induce the highest IL-2 secretion"}
    ]},
    {"molecule": "(2S,3S,4R)-1-O-(6-deoxy-6-(4-phenyltriazol-1-yl)-α-D-galactopyranosyl)-2-hexacosylamino-octadecane-1,3,4-triol [Compound 45]", "values": [
      {"measurement": "IL-2 secretion", "setting": "[6]", "result": "tend to induce the highest IL-2 secretion"}
    ]},
    {"molecule": "(2S,3S,4R)-1-O-(6-deoxy-6-(triazol-1-yl)-α-D-galactopyranosyl)-2-hexacosylamino-octadecane-1,3,4-triol [non-substituted triazolyl compound]", "values": [
      {"measurement": "IL-2 secretion", "setting": "[6]", "result": "even better in stimulating iNKT cells to release IL-2"}
    ]}
  ]
}
